Source: ChEMBL document CHEMBL5727865, “4,6-substituted-pyrazolo[1,5-a]pyrazines as Janus kinase inhibitors” (2020)

How the values were obtained:
[1] = molecular target: Tyrosine-protein kinase JAK2 (Homo sapiens, UniProt O60674); test: (§1) JAK2 Inhibition Assay: Compounds of Formula I were screened for their ability to inhibit JAK2 using the general enzyme inhibition assay method, in which the assay mixture contained 1 mM ATP, 10 μM Omnia Y7 peptide (Catalog # IVGN KNZ3071C, Invitrogen Corporation, Carlsbad, Calif.) and 4 nM JAK2 in a total volume of 25 μL. JAK2 was purchased from Invitrogen Corporation, Carlsbad, Calif. (catalog # IVGN PV4288).
Tyrosine-protein kinase JAK2, sequence (O60674 whole entry): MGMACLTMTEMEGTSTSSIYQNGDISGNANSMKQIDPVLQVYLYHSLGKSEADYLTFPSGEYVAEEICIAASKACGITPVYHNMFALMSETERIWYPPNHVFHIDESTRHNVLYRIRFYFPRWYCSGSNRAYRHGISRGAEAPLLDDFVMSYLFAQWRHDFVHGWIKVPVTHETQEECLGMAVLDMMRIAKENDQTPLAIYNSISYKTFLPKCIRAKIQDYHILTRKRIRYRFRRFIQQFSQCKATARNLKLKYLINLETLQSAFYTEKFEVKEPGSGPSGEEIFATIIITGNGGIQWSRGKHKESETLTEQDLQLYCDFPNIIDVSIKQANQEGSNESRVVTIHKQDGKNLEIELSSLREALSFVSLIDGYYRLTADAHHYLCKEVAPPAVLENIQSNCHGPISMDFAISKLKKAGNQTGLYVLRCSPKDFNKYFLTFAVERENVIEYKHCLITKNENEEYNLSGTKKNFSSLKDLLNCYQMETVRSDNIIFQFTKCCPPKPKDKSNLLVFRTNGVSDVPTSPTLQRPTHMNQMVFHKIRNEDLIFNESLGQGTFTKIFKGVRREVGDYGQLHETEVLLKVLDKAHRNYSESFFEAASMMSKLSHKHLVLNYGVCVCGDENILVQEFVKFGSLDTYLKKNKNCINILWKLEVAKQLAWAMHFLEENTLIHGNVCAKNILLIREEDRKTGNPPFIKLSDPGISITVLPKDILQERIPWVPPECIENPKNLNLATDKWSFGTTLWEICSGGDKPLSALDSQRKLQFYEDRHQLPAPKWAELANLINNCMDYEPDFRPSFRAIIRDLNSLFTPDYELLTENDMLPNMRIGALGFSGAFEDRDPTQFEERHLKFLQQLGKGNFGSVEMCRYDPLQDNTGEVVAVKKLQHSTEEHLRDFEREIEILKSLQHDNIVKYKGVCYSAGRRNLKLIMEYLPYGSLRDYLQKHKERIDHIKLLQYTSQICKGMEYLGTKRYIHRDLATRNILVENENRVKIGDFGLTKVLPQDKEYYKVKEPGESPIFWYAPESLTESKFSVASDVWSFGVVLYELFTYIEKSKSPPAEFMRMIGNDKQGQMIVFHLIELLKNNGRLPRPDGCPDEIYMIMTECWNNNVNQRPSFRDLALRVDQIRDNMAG

[2] = molecular target: Tyrosine-protein kinase JAK1 (Homo sapiens, UniProt P23458); test: as §1, with “JAK1” for “JAK2”, “8” for “10”, “Y12” for “Y7”, “KPZ3121C;” for “KNZ3071C,”, “12.5” for “4”, “PV4775).” for “PV4288).”
Tyrosine-protein kinase JAK1, sequence (P23458 whole entry): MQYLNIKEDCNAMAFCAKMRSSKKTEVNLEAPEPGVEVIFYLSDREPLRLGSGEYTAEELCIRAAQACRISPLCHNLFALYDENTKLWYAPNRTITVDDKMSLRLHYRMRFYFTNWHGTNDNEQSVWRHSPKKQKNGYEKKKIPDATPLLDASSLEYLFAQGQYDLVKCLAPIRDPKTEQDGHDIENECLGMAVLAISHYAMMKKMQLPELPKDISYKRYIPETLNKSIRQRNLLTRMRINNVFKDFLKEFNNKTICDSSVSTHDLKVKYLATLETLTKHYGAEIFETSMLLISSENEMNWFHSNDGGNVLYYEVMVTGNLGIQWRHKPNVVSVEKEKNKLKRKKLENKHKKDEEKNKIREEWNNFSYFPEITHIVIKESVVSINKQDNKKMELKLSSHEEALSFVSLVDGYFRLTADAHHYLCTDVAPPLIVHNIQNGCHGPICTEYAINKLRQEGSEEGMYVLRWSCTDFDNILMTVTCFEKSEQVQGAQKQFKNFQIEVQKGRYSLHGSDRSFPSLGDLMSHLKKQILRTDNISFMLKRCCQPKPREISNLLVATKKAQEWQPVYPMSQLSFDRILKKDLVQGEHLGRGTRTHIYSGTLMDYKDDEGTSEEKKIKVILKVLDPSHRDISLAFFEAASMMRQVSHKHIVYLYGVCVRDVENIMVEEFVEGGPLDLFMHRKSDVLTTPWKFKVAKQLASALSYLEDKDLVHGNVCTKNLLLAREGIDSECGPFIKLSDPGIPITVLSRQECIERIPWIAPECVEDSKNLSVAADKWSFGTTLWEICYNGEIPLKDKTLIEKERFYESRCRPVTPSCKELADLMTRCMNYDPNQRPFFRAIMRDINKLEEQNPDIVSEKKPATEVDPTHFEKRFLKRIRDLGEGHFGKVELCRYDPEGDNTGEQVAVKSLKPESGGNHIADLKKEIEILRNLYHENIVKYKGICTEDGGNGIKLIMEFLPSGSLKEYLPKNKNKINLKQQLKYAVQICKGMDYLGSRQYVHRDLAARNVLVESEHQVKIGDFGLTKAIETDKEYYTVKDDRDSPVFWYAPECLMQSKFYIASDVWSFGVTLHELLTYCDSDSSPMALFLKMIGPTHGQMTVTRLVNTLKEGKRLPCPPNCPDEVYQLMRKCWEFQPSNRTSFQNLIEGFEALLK

IC50 [1] [µM] | IC50 [2] | SMILES
< 0.01 | – | CCC(CC)n1cc(-c2nc(-c3cnn([C@H]4C[C@@H](O)[C@@H](O)C4)c3)cn3nccc23)cn1
– | in the range around 5.5 µM | CCC(CC)n1cc(-c2nc(-c3cnn([C@H]4C[C@@](O)(CO)C4)c3)cn3nccc23)cn1
